# Measured values: patent US20040175401A1, “Enhanced parmacokinetic profile of hydrophobic substances” (priority 2001, published 2004)
# Where two headings read alike, the source gives them in different places. Marks after values point to notes of the source that are not given here.
# Key:
# [1] = starred values; log P estimated using SRC program
# [2] = n-octanol/water partition coefficient LogPoct calculated from solubility data; conditions: calculated as logPoct = (0.99 - logSw)/1.34
# Text: where logSw is the molar solubility and logPoct is the water-oil partition coefficient. Using this equation, values for logPoct can be calculated from solubility data.
# [3] = molar aqueous solubility, log value; cited from earlier work
LogSw [1],LogPoct [2],Compound,LogSw [3] [moles/L]
−8.00* moles/L,–,"CCC[C@@]1(CCc2ccccc2)CC(O)=C([C@H](CC)c2cccc(NS(=O)(=O)c3ccc(C(F)(F)F)cn3)c2)C(=O)O1 [N-(3{(1R)-1-[(6R)-4-hydroxy-2-oxo-6-phenethyl-6-propyl-5,6-dihydro-2H-pyran-3-yl]propyl}phenyl)-5-(trifluoromethyl)-2-pyridinesulfonamide]",–
−3.16* moles/L,–,CCC(=O)NS(=O)(=O)c1ccc(-c2c(-c3ccccc3)noc2C)cc1 [Parecoxib],–
–,3.97,CC(C)(C)NC(=O)[C@@H]1C[C@@H]2CCCC[C@@H]2CN1C[C@@H](O)[C@H](Cc1ccccc1)NC(=O)[C@H](CC(N)=O)NC(=O)c1ccc2ccccc2n1 [Saquinavir],−4.33
−2.59* moles/L,–,Cc1onc(-c2ccccc2)c1-c1ccc(S(N)(=O)=O)cc1 [Valdecoxib],–
–,2.14,C=C(C)C1CC=C(C)[C@@H](O)C1 (some centres unmarked) [carveol],−1.88
–,4.29,CC(C)Nc1cccnc1N1CCN(C(=O)c2cc3cc(NS(C)(=O)=O)ccc3[nH]2)CC1 [delavirdine],−4.76
–,2.23,C=CC(C)(O)CCC=C(C)C (centres unmarked) [linalool],−2.00

Compound,LogSw [1],LogPoct [2],LogSw [3] [moles/L]
CC12CCC(C1)C(C)(C)C2O (centres unmarked) [fenchyl_alcohol],–,2.43,−2.27
CC1(C)C2CC3OC3(C)C1C2 (centres unmarked) [pinene_oxide],–,2.67,−2.59
dimethylthiolethione,–,3.29,−3.42
